Tested on: 3D7-MR4 trophozoite parasite-infected RBCs
Experiment: Metabolomic profiling (hydrophilic metabolite changes, UHPLC-MS)
Type: cell-based, Plasmodium falciparum

Ferroquine [reference compound] was tested, and the “Log2(fold changes) adenosine” value (metabolite adenosine, log2 fold change) was 0.0000, the “Log2(fold changes) alanine/sarcosine” value (metabolite alanine/sarcosine, log2 fold change) was 0.0137 and the “Log2(fold changes) anthranilate” value (metabolite anthranilate, log2 fold change) was 0.0000. For the same substance, the “Log2(fold changes) arginine” value (metabolite arginine, log2 fold change) was 0.0962, the “Log2(fold changes) asparagine” value (metabolite asparagine, log2 fold change) was 0.2455 and the “Log2(fold changes) aspartate” value (metabolite aspartate, log2 fold change) was 0.0829. The “Log2(fold changes) biotin” value (metabolite biotin, log2 fold change) was 0.0000, the “Log2(fold changes) cCMP” value (metabolite cCMP, log2 fold change) was 0.0000 and the “Log2(fold changes) cGMP” value (metabolite cGMP, log2 fold change) was 0.0000. For the same substance, the “Log2(fold changes) carnitine” value (metabolite carnitine, log2 fold change) was 0.0000, the “Log2(fold changes) citrate/isocitrate” value (metabolite citrate/isocitrate, log2 fold change) was 0.0063 and the “Log2(fold change) of coenzyme A” value (metabolite coenzyme A) was 0.9119. The “Log2(fold change) of cyclic-AMP” value (metabolite cyclic-AMP) was 0.1031, the “Log2(fold change) of cytidine” value (metabolite cytidine) was 0.1024 and the “Log2(fold change) of dAMP” value (metabolite dAMP) was -0.3497. For the same substance, the “Log2(fold change) of dATP” value (metabolite dATP) was 0.0366, the “Log2(fold change) of dCDP” value (metabolite dCDP) was -0.2652 and the “Log2(fold change) of dCMP” value (metabolite dCMP) was -0.1471. For the same substance, the “Log2(fold change) of dCTP” value (metabolite dCTP) was 0.0304, the “Log2(fold change) of dGDP/ADP” value (metabolite dGDP/ADP) was -0.1961 and the “Log2(fold change) of dGMP/AMP” value (metabolite dGMP/AMP) was -0.3182. For the same substance, the “Log2(fold change) of dGTP/ATP” value (metabolite dGTP/ATP) was 0.0666, the “Log2(fold change) of dTDP” value (metabolite dTDP) was -0.3263 and the “Log2(fold change) of dTMP” value (metabolite dTMP) was -0.4999. For the same substance, the “Log2(fold change) of dTTP” value (metabolite dTTP) was 0.0866, the “Log2(fold change) of dUMP” value (metabolite dUMP) was 0.0000 and the “Log2(fold change) of dUTP” value (metabolite dUTP) was 0.0000. The “Log2(fold change) of deoxyguanosine” value (metabolite deoxyguanosine) was 0.0000, the “Log2(fold change) of deoxyinosine” value (metabolite deoxyinosine) was 0.0000 and the “Log2(fold change) of deoxyribose-phosphate” value (metabolite deoxyribose-phosphate) was 0.0000. For the same substance, the “Log2(fold change) of deoxyuridine” value (metabolite deoxyuridine) was 0.0000, the “Log2(fold change) of dihydroorotate” value (metabolite dihydroorotate) was 0.1627 and the “Log2(fold change) of folate” value (metabolite folate) was 0.1440. The “Log2(fold change) of fructose-1-6-bisphosphate” value (metabolite fructose-1-6-bisphosphate) was 0.3162, the “Log2(fold change) of fructose-6-phosphate” value (metabolite fructose-6-phosphate) was 0.3514 and the “Log2(fold change) of fumarate” value (metabolite fumarate) was -0.0660. The “Log2(fold change) of glucono-lactone” value (metabolite glucono-lactone) was 0.0470, the “Log2(fold change) of glucose-1/6-phosphate” value (metabolite glucose-1/6-phosphate) was 0.0000 and the “Log2(fold change) of glutamate” value (metabolite glutamate) was 0.0411. The “Log2(fold change) of glutamine” value (metabolite glutamine) was 0.1003, the “Log2(fold change) of glutathione” value (metabolite glutathione) was 0.0000 and the “Log2(fold change) glutathione disulfide” value (metabolite glutathione disulfide) was -0.3466. For the same substance, the “Log2(fold change) glycerate” value (metabolite glycerate) was 0.0000, the “Log2(fold change) guanine” value (metabolite guanine) was 0.0000 and the “Log2(fold change) guanosine” value (metabolite guanosine) was -0.2330. For the same substance, the “Log2(fold change) histidine” value (metabolite histidine) was 0.0507, the “Log2(fold change) homocysteic acid” value (metabolite homocysteic acid) was 0.0000 and the “Log2(fold change) hydroxyphenylpyruvate” value (metabolite hydroxyphenylpyruvate) was 0.0000. For the same substance, the “Log2(fold change) hydroxyproline/Aminolevulinate” value (metabolite hydroxyproline/Aminolevulinate) was 0.0365, the “Log2(fold change) hypoxanthine” value (metabolite hypoxanthine) was 0.0000 and the “Log2(fold change) indole” value (metabolite indole) was 0.0000. For the same substance, the “Log2(fold change) inosine” value (metabolite inosine) was 0.4396, the “Log2(fold change) isoleucine” value (metabolite isoleucine) was 0.0740 and the “Log2(fold change) lactate” value (metabolite lactate) was 0.1682. For the same substance, the “Log2(fold change) leucine” value (metabolite leucine) was 0.0991, the “Log2(fold change) lysine” value (metabolite lysine) was 0.0854 and the “Log2(fold change) malate” value (metabolite malate) was -0.0032. For the same substance, the “Log2(fold change) maleic acid” value (metabolite maleic acid) was 0.0142, the “Log2(fold change) methionine” value (metabolite methionine) was 0.2846 and the “Log2(fold change) myo-inositol” value (metabolite myo-inositol) was 0.0000. The “Log2(fold change) nicotinamide mononucleotide” value (metabolite nicotinamide mononucleotide) was -0.0133, the “Log2(fold change) nicotinate” value (metabolite nicotinate) was 0.1646 and the “Log2(fold change) ornithine” value (metabolite ornithine) was 0.0000. For the same substance, the “Log2(fold change) orotate” value (metabolite orotate) was 0.0201, the “Log2(fold change) orotidine-5'-phosphate” value (metabolite orotidine-5'-phosphate) was 0.1401 and the “Log2(fold change) oxaloacetate” value (metabolite oxaloacetate) was 0.0000. For the same substance, the “Log2(fold change) p-aminobenzoate” value (metabolite p-aminobenzoate) was 0.0000, the “Log2(fold change) p-hydroxybenzoate” value (metabolite p-hydroxybenzoate) was 0.0000 and the “Log2(fold change) pantothenate” value (metabolite pantothenate) was 0.1559. The “Log2(fold change) phenylalanine” value (metabolite phenylalanine) was 0.0217, the “Log2(fold change) phenylpyruvate” value (metabolite phenylpyruvate) was 0.0000 and the “Log2(fold change) phosphoenolpyruvate” value (metabolite phosphoenolpyruvate) was 0.1068. For the same substance, the “Log2(fold change) prephenate” value (metabolite prephenate) was 0.0000, the “Log2(fold change) proline” value (metabolite proline) was 0.0000 and the “Log2(fold change) pyridoxine” value (metabolite pyridoxine) was 0.3553. The “Log2(fold change) pyruvate” value (metabolite pyruvate) was -0.3114, the “Log2(fold change) riboflavin” value (metabolite riboflavin) was 0.0000 and the “Log2(fold change) ribose” value (metabolite ribose) was 0.0000. The “Log2(fold change) ribose-phosphate” value (metabolite ribose-phosphate) was 0.0000, the “Log2(fold change) ribulose-5-phosphate” value (metabolite ribulose-5-phosphate) was 0.1038 and the “Log2(fold change) serine” value (metabolite serine) was 0.2426. The “Log2(fold change) sn-glycerol-3-phosphate” value (metabolite sn-glycerol-3-phosphate) was 0.0527, the “Log2(fold change) succinate/Methylmalonic acid” value (metabolite succinate/Methylmalonic acid) was -0.0206 and the “Log2(fold change) succinyl-CoA/methylmalonyl-CoA” value (metabolite succinyl-CoA/methylmalonyl-CoA) was 0.0000. The “Log2(fold change) taurine” value (metabolite taurine) was 0.3032, the “Log2(fold change) thiamine” value (metabolite thiamine) was 0.1205 and the “Log2(fold change) threonine/homoserine” value (metabolite threonine/homoserine) was 0.0762. For the same substance, the “Log2(fold change) thymidine” value (metabolite thymidine) was 0.0000, the “Log2(fold changes) thymine” value (metabolite thymine, log2 fold change) was 0.0000 and the “Log2(fold changes) trehalose-6-Phosphate” value (metabolite trehalose-6-Phosphate, log2 fold change) was 0.0000. The “Log2(fold changes) tryptophan” value (metabolite tryptophan, log2 fold change) was -0.1782, the “Log2(fold changes) tyrosine” value (metabolite tyrosine, log2 fold change) was 0.0328 and the “Log2(fold changes) uridine” value (metabolite uridine, log2 fold change) was 0.0000. For the same substance, the “Log2(fold changes) valine” value (metabolite valine, log2 fold change) was 0.0750, the “Log2(fold changes) xanthine” value (metabolite xanthine, log2 fold change) was 0.0000 and the “Log2(fold changes) xanthosine-5-phosphate” value (metabolite xanthosine-5-phosphate, log2 fold change) was 0.2017. For the same substance, the “Log2(fold changes) xanthosine” value (metabolite xanthosine, log2 fold change) was -0.1521 and the “Log2(fold changes) xylose” value (metabolite xylose, log2 fold change) was 0.0000.

Reference: PMC7031696 (Cell chemical biology, 2019)
